{"source": "patent US20220127258A1", "about": "“AROMATIC RING OR HETEROAROMATIC RING COMPOUNDS, PREPARATION METHOD THEREFOR AND MEDICAL USE THEREOF” (The National Institutes of Pharmaceutical R&D Co., Ltd., priority 2019, published 2022)", "assay": "Visual inspection of solubility of test sample in extracellular fluid", "assay_type": "physicochemical", "conditions": "0.3 μM to 30 μM solutions in extracellular fluid pH 7.4, from DMSO stock", "procedure": "Extracellular fluid: 140 mM NaCl, 3.5 mM KCl, 1 mM MgCl2, 2 mM CaCl2, 10 mM glucose, 10 mM HEPES, 1.25 mM NaH2PO4, pH=7.4 (adjusted by NaOH). The stock solution of the compound of Example 8 of the present invention (30.26 mM solution in DMSO) was successively diluted with 10 mL of extracellular fluid to obtain 0.3 μM, 1 μM, 3 μM, […], and 30 μM solutions. […] 10 mg of Cisapride was dissolved in 2066.29 μL of dimethyl sulfoxide (DMSO) to obtain a 10 mM stock solution. The Cisapride stock solution was successively diluted with dimethyl sulfoxide (DMSO) to obtain a total of 4 concentrations of 1 μM, 10 μM, 100 μM and 1 mM. Before the test, 10 μL of the diluent at each concentration was added to 10 mL of extracellular fluid to ensure that the DMSO concentration was 0.1%. The final working concentration of Cisapride was 1 nM, 10 nM, 100 nM and 1 μM.", "data": [{"smiles": "O=C(O)c1ccc(-c2nnc(N3[C@@H]4CC[C@H]3C[C@@H](OCc3c(-c5c(Cl)cccc5Cl)noc3C3CC3)C4)o2)cc1", "note": "[Example 8, 4-(5-((1R,3r,5S)-3-((5-cyclopropyl-3-(2,6-dichlorophenyl)isoxazol-4-yl)methoxy)-8-azabicyclo[3.2.1]octan-8-yl)-1,3,4-oxadiazol-2-yl)benzoic acid]", "values": [{"measurement": "solubility of the test sample, visually inspected", "result": "completely dissolved without visible precipitation"}]}]}
